The results in this text go back to US20060223812A1, “Treating neurodegenerative conditions” (MAX-PLANCK-GESELLSCHAFT ZUR FORDERUNGDER WISSENSCHAFTEN, …, priority 2004, published 2006).

The target of one assay is T1, Aβ1-40 fibrils (Homo sapiens, UniProt P05067).
T1 construct: Commercial human Aβ1-40 was obtained from Calbiochem; purchased Calbiochem
Nature of the assay: Disassembly of pre-formed Aβ fibrils (thioflavine T). The class given is biochemical. The note with it: 60 μM compound, 10 μM Aβ1-40. How it is done:
Besides the activity of the compounds towards tau fibres, their specificity is an important issue, i.e. the ability to discriminate between different types of aggregates. Therefore, an analysis of the influence of the compounds (60 μM) on amyloid fibrils made from the Aβ1-40 peptide, both in terms of inhibition of de novo filament formation and depolymerisation was performed (FIGS. 8A-B). These fibres are also abundant in Alzheimer brain and contain a core of cross-β-structure, but are located outside the cells, in contrast to the intracellular PHFs.
Commercial human Aβ1-40 was obtained from Calbiochem (Schwalbach, Germany) and stored at −20° C. The AD peptide was routinely dissolved in 100% DMSO to obtain a 2 mM stock solution, which was subsequently stored frozen at −20° C. […] For analysis 5 μl of this solution were added to 45 μl 10 mM phosphate buffer containing 6 μM thioflavine T, pH 6.0, after 30 minutes incubation at room temperature the fluorescence was measured at 504 nm emission by an excitation of 409 nm. To correlate fibril morphology with the fluorescence signal, aliquots of the Aβ1-40 solutions were simultaneously prepared for electron microscopy. […]

The test system of assay [1] is PHFs from K18/ΔK280/Y310W. The assay is described as follows: Tryptophan fluorescence depolymerisation assay, K18/ΔK280. The class given is biochemical, human. The note with it: 60 μM compound. How it is done: For the fluorescence depolymerisation assay, 60 μM inhibitor compound were added to pre-formed PHFs (10 μM) and incubated overnight at 37° C. PHFs were formed by incubation of tau construct K19/Y310W (50 μM) or K18/ΔK280/Y310W with 12.5 μM heparin in volume of 100 μl at 37° C. in PBS, pH 7.4. Incubation time was three days. The formation of aggregates was observed as a shift of the emission maximum from ˜354 nm to ˜340 nm.
FIG. 5: Disassembly of preformed PHFs measured by tryptophan fluorescence shift assay and filter assay. Experiments were performed with tau constructs containing the Y310W mutation as in FIG. 3.

Each structure is given as a SMILES string.

T1 sequence (P05067 672-711): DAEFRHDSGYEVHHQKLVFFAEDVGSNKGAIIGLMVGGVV

As to `O=C(c1ccccc1)c1ccc(O)c(O)c1O` [PHF005, 1-Phenyl-1-(2,3,4-trihydroxy-phenyl)-methanone], on Aβ1-40 fibrils, the “depolymerisation activity, Aβ fibrils” value is ~50%. Also, the “depolymerising PHFs, K18/ΔK280, Trp fluorescence” value in assay [1] is “most potent agent”.
